This passage reports IC50 results from US20240109918A1, “HETEROCYCLIC COMPOUNDS AND USES THEREOF” (Kumquat Biosciences Inc., priority 2022, published 2024).

The target in assay [1] is T1, KRASwt (Homo sapiens, UniProt P01116).
T1 construct: made in house; host or cells: E. coli BL21 (DE3)
In words: Bio-Biochem-PPI-HTRF Ras-SOS1 interaction assay (KRAS wt). In kind it is biochemical. As to conditions: 5 nM. The procedure, abridged:
(§1)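 HTRF measurement of GST-K-Ras (wt or G12D) binding to His-hSOS1, via anti-GST-Eu(K) donor and anti-6His-XL665 acceptor, in HEPES pH 7.4 buffer with NaCl, DTT, BSA and Igepal. Read after ≥10 min; compounds in duplicate from 10 μM down to 0.01 μM. IC50 from 665/620 nm ratio.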
(In general: TR-FRET usually uses a lanthanide donor and a delayed reading to cut background.)

Assay [2] has as its target T2, KRASG12D (Homo sapiens, UniProt P01116, G12D).
T2 construct: made in house; host or cells: E. coli BL21 (DE3)
In words: Bio-Biochem-PPI-HTRF Ras-SOS1 interaction assay (KRAS G12D). In kind it is biochemical. As to conditions: 5 nM. A digest of the protocol: as §1

T1 sequence (P01116 1-188 isoform P01116-2): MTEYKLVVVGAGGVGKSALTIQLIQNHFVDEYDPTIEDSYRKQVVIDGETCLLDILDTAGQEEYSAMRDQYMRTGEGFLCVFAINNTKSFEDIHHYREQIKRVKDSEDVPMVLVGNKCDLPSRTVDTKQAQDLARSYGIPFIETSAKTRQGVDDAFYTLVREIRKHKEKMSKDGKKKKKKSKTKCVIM
T2 sequence (P01116 1-188 isoform P01116-2 G12D): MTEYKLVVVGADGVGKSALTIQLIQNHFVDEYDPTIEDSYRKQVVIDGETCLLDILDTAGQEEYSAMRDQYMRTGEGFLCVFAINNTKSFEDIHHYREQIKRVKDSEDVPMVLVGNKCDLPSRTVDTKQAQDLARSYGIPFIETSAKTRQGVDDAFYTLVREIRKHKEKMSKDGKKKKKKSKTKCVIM

What is called IC50 is the concentration that gives 50% inhibition. A high value points to weaker potency. Turning to `N#Cc1c(N)sc2c(F)ccc(-c3c(Cl)cc4c(N5CCCCC6(CN(C(=O)c7ccnn7C(F)(F)F)C6)C5)nc(OC[C@@]56CCCN5C[C@H](F)C6)nc4c3F)c12` [compound 323, 2-amino-4-(6-chloro-8-fluoro-2-(((2R,7aS)-2-fluorotetrahydro-1H-pyrrolizin-7a(5H)-yl)methoxy)-4-(2-(1-(trifluoromethyl)-1H-pyrazole-5-carbonyl)-2,6-diazaspiro[3.6]decan-6-yl)quinazolin-7-yl)-7-fluorobenzo[b]thiophene-3-carbonitrile], the IC50 in assay [1] and in assay [2] was less than 5 µM throughout.

With `N#CCC1CCN(c2nc(OC[C@@]34CCCN3C[C@H](F)C4)nc3c(F)c(-c4ccc(F)c5sc(N)c(C#N)c45)c(Cl)cc23)CC2(C1)CN(C(=O)C1CC1(F)F)C2` (stereo partly drawn) [compound 324, 2-amino-4-(6-chloro-4-(9-(cyanomethyl)-2-(2,2-difluorocyclopropane-1-carbonyl)-2,6-diazaspiro[3.6]decan-6-yl)-8-fluoro-2-(((2R,7aS)-2-fluorotetrahydro-1H-pyrrolizin-7a(5H)-yl)methoxy)quinazolin-7-yl)-7-fluorobenzo[b]thiophene-3-carbonitrile], the IC50 in assay [1] and in assay [2] was less than 5 µM throughout.

As for `N#Cc1c(N)sc2c(F)ccc(-c3c(Cl)cc4c(N5CCCCC6(CN(C(=O)N7CCOCC7)C6)C5)nc(OC[C@@]56CCCN5C[C@H](F)C6)nc4c3F)c12` [compound 325, 2-amino-4-(6-chloro-8-fluoro-2-(((2R,7aS)-2-fluorotetrahydro-1H-pyrrolizin-7a(5H)-yl)methoxy)-4-(2-(morpholine-4-carbonyl)-2,6-diazaspiro[3.6]decan-6-yl)quinazolin-7-yl)-7-fluorobenzo[b]thiophene-3-carbonitrile], the 50% inhibitory concentration (IC50) in assay [1] and in assay [2] was less than 5 µM each time.

As for `N#Cc1c(N)sc2c(F)ccc(-c3c(Cl)cc4c(N5CCCCC6(CN(C(=O)CN7CCOCC7=O)C6)C5)nc(OC[C@@]56CCCN5C[C@H](F)C6)nc4c3F)c12` [compound 326, 2-amino-4-(6-chloro-8-fluoro-2-(((2R,7aS)-2-fluorotetrahydro-1H-pyrrolizin-7a(5H)-yl)methoxy)-4-(2-(2-(3-oxomorpholino)acetyl)-2,6-diazaspiro[3.6]decan-6-yl)quinazolin-7-yl)-7-fluorobenzo[b]thiophene-3-carbonitrile], the concentration for half-maximal inhibition (IC50) in assay [1] and in assay [2] was less than 5 µM each time.

In the case of `N#Cc1c(N)sc2c(F)ccc(-c3c(Cl)cc4c(N5CCCCC6(CN(C(=O)C7(O)COC7)C6)C5)nc(OC[C@@]56CCCN5C[C@H](F)C6)nc4c3F)c12` [compound 327, 2-amino-4-(6-chloro-8-fluoro-2-(((2R,7aS)-2-fluorotetrahydro-1H-pyrrolizin-7a(5H)-yl)methoxy)-4-(2-(3-hydroxyoxetane-3-carbonyl)-2,6-diazaspiro[3.6]decan-6-yl)quinazolin-7-yl)-7-fluorobenzo[b]thiophene-3-carbonitrile], the IC50 in assay [1] and in assay [2] was less than 5 µM in each case.

Consider `CC1(NC(=O)N2CC3(CCCCN(c4nc(OC[C@@]56CCCN5C[C@H](F)C6)nc5c(F)c(-c6ccc(F)c7sc(N)c(C#N)c67)c(Cl)cc45)C3)C2)COC1` [compound 328, 6-(7-(2-amino-3-cyano-7-fluorobenzo[b]thiophen-4-yl)-6-chloro-8-fluoro-2-(((2R,7aS)-2-fluorotetrahydro-1H-pyrrolizin-7a(5H)-yl)methoxy)quinazolin-4-yl)-N-(3-methyloxetan-3-yl)-2,6-diazaspiro[3.6]decane-2-carboxamide], for which the IC50 in assay [1] and in assay [2] was less than 5 µM each time.

Take `CC(O)(C(=O)N1CC2(CCCCN(c3nc(OC[C@@]45CCCN4C[C@H](F)C5)nc4c(F)c(-c5ccc(F)c6sc(N)c(C#N)c56)c(Cl)cc34)C2)C1)C1CC1` (stereo partly drawn) [compound 329, 2-amino-4-(6-chloro-4-(2-(2-cyclopropyl-2-hydroxypropanoyl)-2,6-diazaspiro[3.6]decan-6-yl)-8-fluoro-2-(((2R,7aS)-2-fluorotetrahydro-1H-pyrrolizin-7a(5H)-yl)methoxy)quinazolin-7-yl)-7-fluorobenzo[b]thiophene-3-carbonitrile]: the IC50 in assay [1] and in assay [2] was less than 5 µM in each case.

Turning to `N#Cc1c(N)sc2c(F)ccc(-c3c(Cl)cc4c(N5CC(F)(F)C6(CN(C(=O)C(F)F)C6)C5)nc(OC[C@@]56CCCN5C[C@H](F)C6)nc4c3F)c12` [compound 330, 2-amino-4-(6-chloro-4-(2-(2,2-difluoroacetyl)-8,8-difluoro-2,6-diazaspiro [3.4]octan-6-yl)-8-fluoro-2-(((2R,7aS)-2-fluorotetrahydro-1H-pyrrolizin-7a(5H)-yl)methoxy)quinazolin-7-yl)-7-fluorobenzo[b]thiophene-3-carbonitrile], the IC50 in assay [1] and in assay [2] was less than 5 µM in each case.

Consider `N#Cc1c(N)sc2c(F)ccc(-c3c(Cl)cc4c(N5CCC(CO)CC6(CN(C(=O)[C@@H]7CC7(F)F)C6)C5)nc(OC[C@@]56CCCN5C[C@H](F)C6)nc4c3F)c12` (stereo partly drawn) [compound 332, 2-amino-4-(6-chloro-4-(2-((S)-2,2-difluorocyclopropane-1-carbonyl)-9-(hydroxymethyl)-2,6-diazaspiro[3.6]decan-6-yl)-8-fluoro-2-(((2R,7aS)-2-fluorotetrahydro-1H-pyrrolizin-7a(5H)-yl)methoxy)quinazolin-7-yl)-7-fluorobenzo[b]thiophene-3-carbonitrile], for which the IC50 in assay [1] and in assay [2] was less than 5 µM throughout.

`N#Cc1c(N)sc2c(F)ccc(-c3c(Cl)cc4c(N5CCCCC6(CN(C(=O)C78COCC7C8)C6)C5)nc(OC[C@@]56CCCN5C[C@H](F)C6)nc4c3F)c12` (stereo partly drawn) [compound 333, 4-(4-(2-(3-oxabicyclo[3.1.0]hexane-1-carbonyl)-2,6-diazaspiro [3.6]decan-6-yl)-6-chloro-8-fluoro-2-(((2R,7aS)-2-fluorotetrahydro-1H-pyrrolizin-7a(5H)-yl)methoxy)quinazolin-7-yl)-2-amino-7-fluorobenzo[b]thiophene-3-carbonitrile]: the IC50 in assay [1] and in assay [2] was less than 5 µM each time.

For the molecule `C#Cc1c(F)ccc2cc(O)cc(-c3ncc4c(N5CCCCC6(CN(C(=O)[C@@H]7CC7(F)F)C6)C5)nc(OC[C@@]56CCCN5C[C@H](F)C6)nc4c3F)c12` [compound 334, ((S)-2,2-difluorocyclopropyl) (6-(7-(8-ethynyl-7-fluoro-3-hydroxynaphthalen-1-yl)-8-fluoro-2-(((2R,7aS)-2-fluorotetrahydro-1H-pyrrolizin-7a(5H)-yl)methoxy)pyrido[4,3-d]pyrimidin-4-yl)-2,6-diazaspiro[3.6]decan-2-yl)methanone], the concentration for half-maximal inhibition (IC50) in assay [1] and in assay [2] was less than 5 µM each time.

For the molecule `N#Cc1c(N)sc2c(F)ccc(-c3c(Cl)cc4c(N5CCCCC6(CN(C(=O)CN7CCOCC7)C6)C5)nc(OC[C@@]56CCCN5C[C@H](F)C6)nc4c3F)c12` [compound 335, 2-amino-4-(6-chloro-8-fluoro-2-(((2R,7aS)-2-fluorotetrahydro-1H-pyrrolizin-7a(5H)-yl)methoxy)-4-(2-(2-morpholinoacetyl)-2,6-diazaspiro[3.6]decan-6-yl)quinazolin-7-yl)-7-fluorobenzo[b]thiophene-3-carbonitrile], the IC50 in assay [1] and in assay [2] was less than 5 µM each time.

With `N#Cc1c(N)sc2c(F)ccc(-c3c(Cl)cc4c(N5CCCCC6(CN(C(=O)C7CC7(F)Cl)C6)C5)nc(OC[C@@]56CCCN5C[C@H](F)C6)nc4c3F)c12` (stereo partly drawn) [compound 336, 2-amino-4-(6-chloro-4-(2-(2-chloro-2-fluorocyclopropane-1-carbonyl)-2,6-diazaspiro[3.6]decan-6-yl)-8-fluoro-2-(((2R,7aS)-2-fluorotetrahydro-1H-pyrrolizin-7a(5H)-yl)methoxy)quinazolin-7-yl)-7-fluorobenzo[b]thiophene-3-carbonitrile], the half-maximal inhibitory concentration (IC50) in assay [1] and in assay [2] was less than 5 µM each time.

Consider `N#Cc1c(N)sc2c(F)ccc(-c3c(Cl)cc4c(N5CCCCC6(CN(C(=O)CCC(F)F)C6)C5)nc(OC[C@@]56CCCN5C[C@H](F)C6)nc4c3F)c12` [compound 337, 2-amino-4-(6-chloro-4-(2-(4,4-difluorobutanoyl)-2,6-diazaspiro[3.6]decan-6-yl)-8-fluoro-2-(((2R,7aS)-2-fluorotetrahydro-1H-pyrrolizin-7a(5H)-yl)methoxy)quinazolin-7-yl)-7-fluorobenzo[b]thiophene-3-carbonitrile], for which the half-maximal inhibitory concentration (IC50) in assay [1] and in assay [2] was less than 5 µM each time.

Turning to `CC(=O)N1CC2(CCCCN(c3nc(OC[C@@]45CCCN4C[C@H](F)C5)nc4c(F)c(-c5ccc(F)c6sc(N)c(C#N)c56)c(Cl)cc34)C2)C1` [compound 338, 4-(4-(2-acetyl-2,6-diazaspiro [3.6]decan-6-yl)-6-chloro-8-fluoro-2-(((2R,7aS)-2-fluorotetrahydro-1H-pyrrolizin-7a(5H)-yl)methoxy)quinazolin-7-yl)-2-amino-7-fluorobenzo[b]thiophene-3-carbonitrile], the half-inhibitory concentration (IC50) in assay [1] and in assay [2] was less than 5 µM in each case.

For `CC(C)(O)C(F)(F)C(=O)N1CC2(CCCCN(c3nc(OC[C@@]45CCCN4C[C@H](F)C5)nc4c(F)c(-c5ccc(F)c6sc(N)c(C#N)c56)c(Cl)cc34)C2)C1` [compound 339, 2-amino-4-(6-chloro-4-(2-(2,2-difluoro-3-hydroxy-3-methylbutanoyl)-2,6-diazaspiro[3.6]decan-6-yl)-8-fluoro-2-(((2R,7aS)-2-fluorotetrahydro-1H-pyrrolizin-7a(5H)-yl)methoxy)quinazolin-7-yl)-7-fluorobenzo[b]thiophene-3-carbonitrile], the IC50 in assay [1] and in assay [2] was less than 5 µM throughout.
